Results: patent US12378186B2, “Inhibitors of meprin α and β” (VIVORYON THERAPEUTICS N.V., priority 2016, dated 2025)
Like-named read-outs stand apart in the source and are kept apart here.

Tests used:
[1] = target: T1, hMeprin β (Homo sapiens, UniProt Q16820); experiment: Enzymatic assay, cleavage of internally quenched peptide substrate, hMeprin β; type: biochemical
T1 sequence (Q16820 62-701): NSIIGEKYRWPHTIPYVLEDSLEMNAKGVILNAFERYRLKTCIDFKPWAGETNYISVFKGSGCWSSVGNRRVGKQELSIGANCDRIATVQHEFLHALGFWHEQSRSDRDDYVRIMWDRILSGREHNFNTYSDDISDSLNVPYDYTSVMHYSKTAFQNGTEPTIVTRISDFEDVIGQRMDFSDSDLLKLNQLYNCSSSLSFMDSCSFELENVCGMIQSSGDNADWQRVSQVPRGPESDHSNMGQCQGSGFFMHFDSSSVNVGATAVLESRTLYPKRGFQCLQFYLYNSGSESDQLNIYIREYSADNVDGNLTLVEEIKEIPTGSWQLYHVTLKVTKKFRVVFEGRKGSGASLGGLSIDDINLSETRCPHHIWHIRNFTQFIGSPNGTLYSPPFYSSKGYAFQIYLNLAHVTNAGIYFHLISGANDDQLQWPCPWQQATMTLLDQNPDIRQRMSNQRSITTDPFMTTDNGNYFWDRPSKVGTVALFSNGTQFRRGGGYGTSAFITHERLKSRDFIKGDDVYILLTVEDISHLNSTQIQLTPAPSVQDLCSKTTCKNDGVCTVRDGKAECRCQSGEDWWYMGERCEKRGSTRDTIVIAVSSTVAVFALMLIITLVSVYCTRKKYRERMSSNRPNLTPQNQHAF
Protocol: (§1) A typical assay of 250 μl total volume measured in black 96 well plates consisted of 100 μl buffer, 50 μl enzyme at a final concentration of 5e-8 M to 5e-9 M, 50 μl substrate (0.15 to 80 μM, in buffer, 0.5% DMSO) and 50 μl inhibitor solution (in buffer, 1% DMSO). In case of 125 μl assay volume (black 96 half area well plates) all volumes were cut in half. Enzymatic activity of ADAMs was measured in 384 well plates with 60 μl total assay volume consisting of 20 μl inhibitor, 20 μl buffer, 10 μl enzyme and 10 μl substrate.
(§2) Ki values were assessed combining 4 substrate concentrations (5-40 μM) with at least 5 inhibitor concentrations. […] Initial velocities were determined and converted into concentration units applying a standard curve obtained after complete conversion of different substrate concentrations under assay conditions. All measurements were performed using a fluorescence plate reader (FLUOstar OPTIMA, BMG Labtech) at 30° C. The kinetic parameters were determined at least in duplicates on separate days. The excitation/emission wavelength was 340/420 nm. The kinetic data was evaluated using GraFit software (version 7.0.3, Erithacus Software).
(§3) The following compounds according to the present invention were synthesized using the above general procedures. IC50 refers to the average IC50 values measured as described above, SD (IC50) refers to the standard deviation of the average IC50 values, Ki refers to the average K; values measured as described above, and SD (Ki) to the standard deviation of the average Ki values.

[2] = target: T2, hMeprin α (Homo sapiens, UniProt Q16819); experiment: biochemical; type: biochemical
T2 sequence (Q16819 66-746): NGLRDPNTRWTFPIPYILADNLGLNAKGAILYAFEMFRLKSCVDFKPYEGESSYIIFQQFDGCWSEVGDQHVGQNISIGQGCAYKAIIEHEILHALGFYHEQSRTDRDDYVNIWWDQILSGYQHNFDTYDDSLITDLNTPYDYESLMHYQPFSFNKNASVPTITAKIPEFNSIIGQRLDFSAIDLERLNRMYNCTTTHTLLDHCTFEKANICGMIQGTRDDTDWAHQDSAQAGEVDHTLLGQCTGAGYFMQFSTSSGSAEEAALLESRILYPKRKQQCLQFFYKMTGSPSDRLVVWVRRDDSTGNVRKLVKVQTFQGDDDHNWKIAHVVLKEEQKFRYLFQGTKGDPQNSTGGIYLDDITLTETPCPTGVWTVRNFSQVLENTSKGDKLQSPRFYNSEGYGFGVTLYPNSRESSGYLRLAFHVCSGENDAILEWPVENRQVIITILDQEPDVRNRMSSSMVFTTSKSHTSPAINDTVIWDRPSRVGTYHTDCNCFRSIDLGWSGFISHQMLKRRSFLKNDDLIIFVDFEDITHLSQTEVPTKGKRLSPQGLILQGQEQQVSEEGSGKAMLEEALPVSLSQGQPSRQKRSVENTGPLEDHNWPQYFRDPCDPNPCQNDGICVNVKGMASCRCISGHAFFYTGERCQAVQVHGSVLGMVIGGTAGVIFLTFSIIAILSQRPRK
Protocol: as §1, §2, §3

[3] = average IC50, 10 μM substrate, 30° C., 40 mM HEPES pH 7.4, read-out: Meprin Alpha IC50
[4] = average Ki, 4 substrate concentrations (5-40 μM), 30° C., 40 mM HEPES pH 7.4, read-out: Meprin Alpha Ki
[5] = average IC50, 10 μM substrate, 30° C., 40 mM Tris pH 8.0, read-out: Meprin Beta IC50

Structure (SMILES) | IC50 [1] [nM] | Ki [1] [nM] | IC50 [2, 3] [µM] | Ki [2, 4] [nM] | further results
O=C(O)c1cccc(CN2CCCC2C(=O)NO)c1 (stereo in doubt) [Example 12, 3-[[(2R)-2-(Hydroxycarbamoyl)pyrrolidin-1-yl]methyl]benzoic acid] | 31400 |  |  |  | 
O=C(O)c1cccc(CN2CCCC2C(=O)NO)c1 (stereo in doubt) [Example 13, 3-[[(2S)-2-(Hydroxycarbamoyl)pyrrolidin-1-yl]methyl]benzoic acid] | 41100 |  |  |  | 
O=C(CN(Cc1ccc(C(=O)O)cc1)Cc1ccc(C(=O)O)cc1)NO [Example 1, 4-[[(4-Carboxyphenyl)methyl-[2-(hydroxyamino)-2-oxo-ethyl]amino]methyl]benzoic acid] | 468 | 223 | 85.7 |  | 
O=C(CN(Cc1cccc(C(=O)O)c1)Cc1cccc(C(=O)O)c1)NO [Example 2, 3-[[(3-Carboxyphenyl)methyl-[2-(hydroxyamino)-2-oxo-ethyl]amino]methyl]benzoic acid] |  | 18 | 30.9 | 10400 | 
O=C(CNCc1cccc(C(=O)O)c1)NO [Example 3, 3-[[[2-(Hydroxyamino)-2-oxo-ethyl]amino]-methyl]benzoic acid] |  | 183 |  |  | IC50 [1, 5]: 377 nM
O=C(CN(Cc1ccc2c(c1)OCO2)Cc1ccc2c(c1)OCO2)NO [Example 4, 2-[bis(1,3-Benzodioxol-5-ylmethyl)amino]-ethanehydroxamic acid] | 5360 | 6560 | 0.83 | 274 | 
COc1cccc(CN(CC(=O)NO)Cc2cccc(OC)c2)c1 [Example 5, 2-[bis[(3-Methoxyphenyl)methyl]amino]-ethanehydroxamic acid] | 25600 | 15700 |  |  | 
COc1ccc(CN(CC(=O)NO)Cc2cccc(C(=O)O)c2)cc1 [Example 6, 3-[[[2-(Hydroxyamino)-2-oxo-ethyl]-[(4-methoxyphenyl)methyl]amino]-methyl]benzoic acid] |  | 39 |  | 1210 | 
O=C(CN(Cc1ccc(C(=O)O)cc1)Cc1cccc(C(=O)O)c1)NO [Example 7, 3-[[(4-Carboxyphenyl)methyl-[2-(hydroxyamino)-2-oxo-ethyl]amino]methyl]benzoic acid] |  | 101 | 44.4 |  | IC50 [1, 5]: 206 nM
O=C(CN(Cc1ccc(-c2ccccc2)cc1)Cc1cccc(C(=O)O)c1)NO [Example 8, 3-[[[2-(Hydroxyamino)-2-oxo-ethyl]-[(4-biphenyl)methyl]amino]-methyl]benzoic acid] | 1440 | 1030 |  |  | 
CCCOc1ccc(CN(CC(=O)NO)Cc2cccc(C(=O)O)c2)cc1 [Example 9, 3-[[[2-(Hydroxyamino)-2-oxo-ethyl]-[(4-propoxyphenyl)methyl]amino]-methyl]benzoic acid] | 2250 | 874 |  |  | 
COc1ccc(CN(CC(=O)NO)Cc2cccc(C(=O)O)c2)cc1F [Example 10, 3-[[(3-Fluoro-4-methoxy-phenyl)methyl-[2-(hydroxyamino)-2-oxo-ethyl]amino]methyl]benzoic acid] | 352 | 157 | 3.74 | 1090 | 
COc1cc(F)c(CN(CC(=O)NO)Cc2cccc(C(=O)O)c2)c(F)c1 [Example 11, 3-[[(2,6-Difluoro-4-methoxy-phenyl)methyl-[2-(hydroxyamino)-2-oxo-ethyl]amino]methyl]benzoic acid] | 355 | 154 | 2.12 | 1260 | 
COc1cccc(CN(CC(=O)NO)Cc2cccc(C(=O)O)c2)c1 [Example 14, 3-[[[2-(Hydroxyamino)-2-oxo-ethyl]-[(3-methoxyphenyl)methyl]amino]-methyl]benzoic acid] |  | 288 |  |  | IC50 [1, 5]: 559 nM
COc1ccc(CN(CC(=O)NO)Cc2ccc(OC)cc2)cc1 [Example 15, 2-[bis[(4-Methoxyphenyl)methyl]amino]ethane-hydroxamic acid] | 31800 |  |  |  | 
COc1ccc(CN(CC(=O)NO)Cc2ccccc2C(=O)O)cc1 [Example 16, 2-[[[2-(Hydroxyamino)-2-oxo-ethyl]-[(4-methoxyphenyl)methyl]amino]-methyl]benzoic acid] | 22800 |  |  |  | 
O=C(CN(Cc1ccccc1)Cc1cccc(C(=O)O)c1)NO [Example 17] |  | 797 |  |  | 
Cc1ccc(CN(CC(=O)NO)Cc2cccc(C(=O)O)c2)cc1 [Example 18, 3-[[[2-(Hydroxyamino)-2-oxo-ethyl]-(p-tolyl-methyl)amino]methyl]benzoic acid] | 361 | 170 | 4.67 | 1990 | 
N#Cc1ccc(CN(CC(=O)NO)Cc2cccc(C(=O)O)c2)cc1 [Example 19, 3-[[(4-Cyanophenyl)methyl-[2-(hydroxyamino)-2-oxo-ethyl]amino]methyl]benzoic acid] |  | 125 | 4.88 | 1950 | IC50 [1, 5]: 320 nM
O=C(CN(Cc1ccc(Cl)cc1)Cc1cccc(C(=O)O)c1)NO [Example 20, 3-[[(4-Chlorophenyl)methyl-[2-(hydroxyamino)-2-oxo-ethyl]amino]methyl]benzoic acid] |  | 33 | 1.79 | 796 | IC50 [1, 5]: 76 nM
O=C(CN(Cc1ccc(F)cc1)Cc1cccc(C(=O)O)c1)NO [Example 21, 3-[[(4-Fluorophenyl)methyl-[2-(hydroxyamino)-2-oxo-ethyl]amino]methyl]benzoic acid] |  | 1680 |  |  | IC50 [1, 5]: 177 nM; IC50 [2]: 4.21 µM; Ki [2]: 1680 nM
N#Cc1ccc(CN(CC(=O)NO)Cc2ccc(C#N)cc2)cc1 [Example 55, 2-[bis[(4-cyanophenyl)methyl]amino]-ethanehydroxamic acid] |  |  | 5.66 | 1600 | 
COc1c(Cl)ccc(CN(CC(=O)NO)Cc2ccc(Cl)c(OC)c2F)c1F [Example 56, 2-[bis[(4-chloro-2-fluoro-3-methoxy-phenyl)-methyl]amino]ethanehydroxamic acid] |  |  | 4.98 | 1010 | 
N#Cc1ccc(CN(CCC(=O)NO)Cc2ccc(C#N)cc2)cc1 [Example 57, 3-[bis[(4-cyanophenyl)methyl]amino]-propanehydroxamic acid] |  |  |  | 1200 | 
O=C(CCN(Cc1ccc(Cl)cc1F)Cc1ccc(Cl)cc1F)NO [Example 62, 3-[bis[(4-chloro-2-fluoro-phenyl)methyl]-amino]propanehydroxamic acid] |  |  |  | 169 | 
COc1c(Cl)ccc(CN(CCC(=O)NO)Cc2ccc(Cl)c(OC)c2F)c1F [Example 65, 3-[bis[(4-chloro-2-fluoro-3-methoxy-phenyl)-methyl]amino]propanehydroxamic acid] |  |  |  | 157 | 
O=C(CN(Cc1ccccc1)Cc1ccccc1)NO [Example 67, 2-(dibenzylamino) ethanehydroxamic acid] |  |  | 7.88 | 3090 | 
